Assay results as given in patent US10196609B2, “Composition for promoting cardiac differentiation of pluripotent stem cell comprising EGFR inhibitor” (Kyoto University, priority 2013, dated 2019).

Experiments:
[1] = Effect to promote cardiac differentiation by the methods of WO2012/026491; format: cell-based; details: methods described in the Examples of WO2012/026491
Source text: The effect of SO3031 (KY01-I), SO2031 (KY02-I), SO3042 (KY03-I), and SO2077 to promote cardiac differentiation was confirmed by the methods described in the Examples of WO2012/026491.

Monkey ES cells = assay: Cardiac differentiation of monkey ES cells (α-MHC promoter-GFP) in adhesion culture, GFP fluorescence by HCS; format: cell-based; details: for effect of promoting cardiac differentiation (GFP fluorescence): added Days 4-8 together with KYO2111 (10 µM), AG1478 20 μM, read at Day 10, FIGS. 1-3
Experimental: At Day 10 of culture, compounds that enhanced GFP fluorescence were identified by measuring GFP fluorescence with HCS (high contents screening) system (Olympus IX81 inverted microscope and Molecular device/MetaMorph imaging system).
During Days 4-8 of culture KYO2111 (10 μM) and PP3 (3 μM, 10 μM, 30 μM, or 100 μM) were added.

human ES cells (KhES-3) = assay: Cardiac differentiation of human ES cells in floating culture, percentage of cTnT-positive cardiomyocytes by flow cytometry; format: cell-based; details: for effect to promote cardiac differentiation in combination with XAV939 only: XAV+AG1478 or gefitinib; for effect to promote cardiac differentiation in combination with XAV939 only / effect to promote cardiac differentiation by itself: human ES or iPS cells, cell line not stated, FIG. 8; for effect to promote cardiac differentiation by itself: without addition of KYO2111 and XAV939
Experimental: (§1) Human ES cells or iPS cells subcultured with mouse feeder cells were collected. Colonies of the human ES cells or iPS cells (3-10×10^6 cells/well) were plated on 6-well plates of Ultra-low culture dish (CORNING 3261), and cultured in an IMDM-based medium having a defined composition (IMDM (Sigma) containing 1% MEM non-essential amino acid solution (Sigma), 1% penicillin-streptomycin (Gibco), 2 mM L-glutamine (Sigma), 0.5 mM L-carnitine (Sigma), 0.001% 2-mercaptoethanol (Gibco), and 0.4% human serum albumin (Sigma)) in floating culture for 30 days (FIG. 5). During Days 0-2 of culture (for 2 days), CHIR99021 (Axon) (4 μM) and BIO (Calbiochem) (1 μM) were added, and during Days 3-9 of culture (for 6 days) KYO2111 (10 μM) and XAV939 (1 μM) were added. […] The cardiac differentiation was evaluated by analyzing the percentage of cardiomyocytes with flow cytometry using an antibody against cardiac troponin T (cTnT), a specific marker of cardiac muscle at Day 30 of culture.

Human iPS cells (253G1) = assay: Cardiac differentiation of human iPS cells in feeder-free sphere culture, cTnT flow cytometry; format: cell-based; details: 10 μM Days 3-9 in addition to KYO2111 (10 μM) and XAV939 (1 μM); Day 30; increased from 34% without EGFR inhibitor; FIG. 9
Experimental: Human iPS cells (253G1) were cultured in sphere culture without feeder cells (feeder-free sphere culture). In detail, 253G1 cells subcultured with mouse feeder cells were collected, the cell cluster was passed through […] (CellTrics, PARTEC04004-2327) to give uniform cell clusters having the size of 80-120 μm, the cells were plated in 6-well plates of Ultra-low culture dish (CORNING 3261) and cultured in mTeSR1 medium (Stem Cell Technology 05850) containing 3% methylcellulose (R&D, HSC001) in floating culture until the size of the colonies of the iPS cells arrived at about 200-300 μm. The cells were subcultured more than 20 times by repeating the steps of this feeder-free sphere culture. The medium was replaced with an IMDM-based medium having a defined composition (IMDM (Sigma) containing 1% MEM non-essential amino acid solution (Sigma), 1% penicillin-streptomycin (Gibco), 2 mM L-glutamine (Sigma), 0.5 mM L-carnitine (Sigma), 0.001% 2-mercaptoethanol (Gibco), and 0.4% human serum albumin (Sigma)) and the cells were cultured in floating culture for 30 days (FIG. 5). […] The cardiac differentiation was evaluated by analyzing the percentage of cardiomyocytes with flow cytometry using an antibody against cardiac troponin T (cTnT), a specific marker of cardiac muscle at Day 30 of culture.

[2] = tested on: human iPS cells (IMR90-1); assay: Cardiac differentiation of human iPS cells in floating culture, percentage of cTnT-positive cardiomyocytes by flow cytometry; format: cell-based; details: 5-20 μM added Days 2-9 of culture, FIG. 7
Experimental: as §1

Src kinase = Src kinase (Homo sapiens, UniProt P12931); details: cited from earlier work
Sequence of Src kinase (P12931 whole entry): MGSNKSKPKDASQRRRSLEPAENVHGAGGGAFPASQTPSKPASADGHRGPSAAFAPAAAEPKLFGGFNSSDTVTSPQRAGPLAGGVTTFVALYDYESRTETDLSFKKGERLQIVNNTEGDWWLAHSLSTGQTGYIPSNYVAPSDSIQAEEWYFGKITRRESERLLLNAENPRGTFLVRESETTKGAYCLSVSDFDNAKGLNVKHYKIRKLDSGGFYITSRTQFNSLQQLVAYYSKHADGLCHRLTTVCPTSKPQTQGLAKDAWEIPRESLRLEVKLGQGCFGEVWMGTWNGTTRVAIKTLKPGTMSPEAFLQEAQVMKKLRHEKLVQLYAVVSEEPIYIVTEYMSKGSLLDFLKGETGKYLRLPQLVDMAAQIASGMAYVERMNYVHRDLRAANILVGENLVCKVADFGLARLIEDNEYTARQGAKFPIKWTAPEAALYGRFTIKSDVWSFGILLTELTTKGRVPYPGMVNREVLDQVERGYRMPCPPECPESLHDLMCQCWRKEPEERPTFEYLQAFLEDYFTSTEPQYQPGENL

## COc1ccc(CCC(=O)Nc2nc3ccc(I)cc3s2)cc1OC [SO2031, 2-(3-(3,4-dimethoxyphenyl)propanamide)-6-iodobenzothiazole]
[1]
  effect to promote cardiac differentiation: confirmed

## COc1cc2ncnc(Nc3ccc(F)c(Cl)c3)c2cc1OCCCN1CCOCC1 [gefitinib]
Monkey ES cells
  effect of promoting cardiac differentiation (GFP fluorescence): have the effect of promoting cardiac differentiation
Human ES cells (KhES-3); 10 μM added Days 0-2 of culture, with CHIR99021+BIO Days 0-2, KYO2111+XAV939 Days 3-9, Day 30, FIG. 6
  promotion of cardiac differentiation: did not promote cardiac differentiation
Human ES cells (KhES-3)
  effect to promote cardiac differentiation in combination with XAV939 only: produced an effect to promote cardiac differentiation
  effect to promote cardiac differentiation by itself: produced an effect to promote cardiac differentiation
Human iPS cells (253G1)
  percentage of cardiomyocytes: about 50%

## COc1cc2ncnc(Nc3cccc(Cl)c3)c2cc1OC [AG1478]
Monkey ES cells; Wnt signaling inhibitor KYO2111 added together, FIG. 4
  synergistic promotion of cardiac differentiation with KYO2111: synergistically promoted cardiac differentiation
Monkey ES cells; Wnt signaling inhibitor XAV939 added together, FIG. 4
  synergistic promotion of cardiac differentiation with XAV939: synergistically promoted cardiac differentiation
Monkey ES cells
  effect of promoting cardiac differentiation (GFP fluorescence): had the effect of promoting cardiac differentiation
[2]
  cardiac differentiation efficiency: the cardiac differentiation efficiency was increased
Human ES cells (KhES-3); 20 μM, Days 2-9, stated for human ES (KhES-3) and iPS (IMR90-1) cells together, Day 30, FIG. 7
  percentage of cardiomyocytes: 92-95%
Human ES cells (KhES-3); 5-20 μM added Days 2-9 of culture, KhES-3, FIG. 7
  cardiac differentiation efficiency: the cardiac differentiation efficiency was increased
Human ES cells (KhES-3)
  effect to promote cardiac differentiation in combination with XAV939 only: produced an effect to promote cardiac differentiation
  effect to promote cardiac differentiation by itself: produced an effect to promote cardiac differentiation
Human iPS cells (253G1)
  percentage of cardiomyocytes: about 50%

## CCCOc1ccc(CCC(=O)Nc2nc3ccc(I)cc3s2)cc1OC [SO2077, 2-(3-(3-methoxy-4-propoxyphenyl)propanamide)-6-iodobenzothiazole]
[1]
  effect to promote cardiac differentiation: confirmed

## Nc1ncnc2c1cnn2-c1ccccc1 [PP3]
Src kinase
  inhibitory effect on Src kinase: no inhibitory effect
Monkey ES cells; PP3 3, 10, 30 or 100 μM with KYO2111 (10 μM), Days 4-8, FIG. 10
  enhancement of the effect of KYO2111 to promote cardiac differentiation: enhance the effect of KYO2111 to promote cardiac differentiation

## COc1ccc(CC(=O)Nc2nc3ccc(I)cc3s2)cc1OC [SO3031, 2-(2-(3,4-dimethoxyphenyl)acetamide)-6-iodobenzothiazole]
[1]
  effect to promote cardiac differentiation: confirmed

## COc1ccc(CCCC(=O)Nc2nc3ccc(I)cc3s2)cc1OC [SO3042, 2-(4-(3,4-dimethoxyphenyl)butanamide)-6-iodobenzothiazole]
[1]
  effect to promote cardiac differentiation: confirmed
